Six compounds from patent publication US9173875B2, “Treatment for nicotine-induced lung disease using peroxisome proliferator-activated receptor gamma agonists” (Los Angeles Biomedical Research Institute at Harbor-UCLA …, priority 2006, dated 2015) can be followed below.

Like-named read-outs stand apart in the source and are kept apart here.

In experiment [1] the test system is WI38 cells. Briefly: Triglyceride uptake assay ([3H]triolein) in WI38 cells. It is filed as cell-based, human. The protocol:
The human embryonic cell line WI38 was obtained from American Type Culture Collection (Rockville, Md.). Cells were grown in MEM plus 10% FBS at 37° C. in six-well plates, four-well slides, and 60- and 100-mm culture dishes as needed.
The method used to quantitate triglyceride uptake by fetal rat lung fibroblasts has been described previously (Torday et al. (1995) Biochim Biophys Acta 1254: 198-206). Briefly, culture medium was replaced with DMEM containing 20% adult rat serum mixed with [3H]triolein (5 μCi/ml). The cells were incubated at 37° C. in 5% CO2+balance air for 4 h. At the termination of the incubation, the medium was decanted, the cells were rinsed twice with 1 ml of ice-cold MEM, and the cells were removed from the culture plate after a 5- to 10-min incubation with 2 ml of a 0.05% trypsin solution. An aliquot of the cell suspension was taken for protein assay (Bradford (1976) Anal Biochem 72: 248-254), and the remaining cell suspension was extracted for neutral lipid content.

A further experiment has as its target T1, PTHrP receptor (Homo sapiens, UniProt Q03431).
T1 construct: 10-12 μg membrane protein; endogenous in cells; host or cells: WI38 human embryonic lung fibroblasts (inferred; the assay text only says membrane protein)
T1 sequence (Q03431 27-593): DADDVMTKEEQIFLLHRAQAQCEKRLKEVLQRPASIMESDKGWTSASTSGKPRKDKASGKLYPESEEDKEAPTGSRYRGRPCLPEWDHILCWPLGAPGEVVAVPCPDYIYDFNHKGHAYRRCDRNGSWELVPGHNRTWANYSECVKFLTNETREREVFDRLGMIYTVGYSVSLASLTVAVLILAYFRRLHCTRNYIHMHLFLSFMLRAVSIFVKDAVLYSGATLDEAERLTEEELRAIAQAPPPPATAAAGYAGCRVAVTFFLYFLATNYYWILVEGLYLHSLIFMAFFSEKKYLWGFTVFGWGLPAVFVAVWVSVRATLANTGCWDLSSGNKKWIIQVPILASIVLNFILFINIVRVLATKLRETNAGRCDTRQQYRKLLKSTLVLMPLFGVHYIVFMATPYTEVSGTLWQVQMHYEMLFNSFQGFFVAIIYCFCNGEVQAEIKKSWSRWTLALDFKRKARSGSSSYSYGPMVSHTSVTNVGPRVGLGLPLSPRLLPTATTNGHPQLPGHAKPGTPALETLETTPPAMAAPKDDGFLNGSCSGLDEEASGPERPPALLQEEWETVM
Nature of the experiment: PTHrP receptor binding assay. How it is done: The receptor binding assay was carried out as previously described (Torday and Rehan (2002) Am. J. Physiol. Lung Cell Mol. Physiol. 283: L130-L135; Torday and Rehan (2003) Cell Biochem Biophys 37: 235-246). The assay mixture, in a total volume of 0.1 ml, contained 50 mM Tris.HCl (pH 7.4), 2 mM dithiothreitol, 10 mM EDTA, 10 μg/ml each of protease inhibitors (leupeptin, pepstatin, antipain, and aprotinin), 0.5 mM phenylmethylsulfonyl fluoride, 10 mg/ml BSA, 5 mM MgCl2, […] [1251]-Tyr34-PTHrP-(1-34) (specific activity 1,064 Ci/mmol), 10-12 μg membrane protein, and 1×10-10 to 1×10^−6 M PTHrP-(1-34). Triplicate samples were incubated for 30 min at 30° C. Reactions were stopped by the addition of 0.1 ml of homogenization buffer containing 20 mg/ml of BSA and placed in ice-cold water for 30 min, followed by centrifugation at 15,000 g for 1 min. The supernatant was aspirated, and the pellet was counted for radioactive content with a gamma counter (model 1470; Wallace, Gaithersburg, Md.). Nonspecific binding was determined in the presence of 1 μM nonradioactive PTHrP-(1-34). Specific binding of [^125I]-Tyr34-PTHrP-(1-34) was calculated as total binding minus nonspecific binding and expressed as femtomoles per milligrams of protein. […] The effect of nicotine (1×10^−6 M) on PTHrP receptor binding was examined without and with the nACh receptor antagonists D-tubocurarine, α-bungarotoxin, or mecamylamine (1×10^−9 to 1×10^−6 M).

Experiment [2] concerns fetal alveolar type II (ATII) cells. Briefly: In vivo ATII cell proliferation assay (PCNA and SP-C double labeling) after in utero nicotine. On the set-up: species or system Sprague-Dawley rat.
For a further experiment, the system named is fetal ATII cells. Nature of the experiment: Ex vivo ATII cell proliferation assay (tetrazolium dye) after in utero nicotine. The arrangement: species or system Sprague-Dawley rat. The protocol: Pathogen-free timed (embryonic day 0=day of mating) pregnant Sprague-Dawley rats (200-250 g body wt) were obtained from Charles River (Hollister, Calif.) at embryonic day 3 and allowed to acclimatize until embryonic day 6. […] The fetuses were extracted by cesarean section, and the lungs were snap frozen for later analysis or processed for ATII cell or fibroblast culture. […] Louis, Mo.; 0.25 mg/kg). All studies were approved by the Los Angeles Biomedical Research Institute Institutional Review Board and were conducted in accordance with the National Institutes of Health Guide for the Care and Use of Laboratory Animals. ATII cells were isolated using differential adherence in monolayer culture, as described previously (Battenburg et al. (1990) Biochim. Biophys. Acta 960: 441-456). Briefly, three to five […] used per preparation. The fetuses were delivered via cesarean section, and fetal lungs were placed in Hanks' balanced salt solution without calcium and magnesium. […] A Teflon stirring bar was used to further dissociate the lungs by mechanical disruption of the tissue during incubation in a 37° C. water bath. After the tissue was dispersed into a unicellular suspension, the cells were pelleted at 500 g for 10 min at room temperature in a 50-ml polystyrene centrifuge tube. […] The cell suspension was then added to 75-cm^2 (T-75) culture flasks for 30-60 min to allow for differential adherence of lung fibroblasts. The unattached cells were then transferred to another T-75 culture flask for an additional 60 min. After this second culture period, the medium and nonadherent cells were removed from the flask and diluted with 1 vol of culture medium. This diluted suspension was cultured overnight in a T-75 culture flask at 37° C. in a CO2 incubator to allow the ATII cells to adhere. […] According to the manufacturer's protocol, cell proliferation was determined by the tetrazolium dye assay, which is based on the conversion of a tetrazolium salt to a red formazan product by living cells (Cell Proliferation Assay, Promega).

A further experiment has as its system fetal rat lung explants. Briefly: In vitro ATII cell proliferation in lung explants (PCNA and SP-C labeling). It is filed as cell-based.
Experiment [3] concerns ATII cells. Nature of the experiment: Phospholipid synthesis ([3H]choline incorporation into saturated phosphatidylcholine) by ATII cells after in utero nicotine. It is filed as in vivo, Sprague-Dawley rat.
Description: (§1) Incorporation of [methyl-3H]choline chloride (NEN Dupont) into saturated phosphatidylcholine was determined in monolayers of cultured explants and ATII cells. […] After incubation, explants and cells were washed three times with ice-cold PBS. The explants and the scraped cells were thoroughly homogenized, and the cellular lipids were extracted with chloroform-methanol (2:1) (Bligh and Dyer (1959) Can. J. Biochem. Physiol., 37: 911-917). The organic phase was dried under a stream of nitrogen at 60° C., resuspended in 0.5 ml of carbon tetrachloride containing 3.5 mg of osmium tetroxide, and left at room temperature for 15 min. The reaction mixture was redried under nitrogen and resuspended in 70 μl of chloroform-methanol (9:1, vol/vol). The lipid extracts were transferred to silica gel plates (Kodak, Rochester, N.Y.) and developed in a chloroform-methanolwater (65:25:4) solvent system. Pure dipalmitoyl phosphatidylcholine was used as the chromatographic standard. The developed plates were stained with bromothymol blue, blotted, and vacuum dried for 5 min at 90° C. Chromatogram spots corresponding to the migration of saturated phosphatidylcholine were scraped from the plates and counted by liquid scintillation spectrometry. The amounts of [methyl^3H]choline chloride incorporated into saturated phosphatidylcholine were expressed as disintegrations per minute per milligram of protein.
The test system of experiment [4] is ATII cells. Nature of the experiment: Phospholipid synthesis ([3H]choline incorporation) by ATII cells treated in vitro. It is filed as cell-based, rat.
Description: Isolated ATII cells were cultured in DMEM+10% FBS in 6- and 96-well plates, 100-mm dishes, and T-75 flasks, as needed, and maintained at 37° C. in a humidified incubator containing 5% CO2-95% air. At 80-90% confluence, cells were processed for cell proliferation, differentiation, and metabolic studies (see below).
as §1
Experiment [5] concerns ATII cells. Briefly: Western analysis of CCT-α and SP-B in ATII cells after in utero nicotine. It is filed as in vivo, Sprague-Dawley rat. The protocol: Pathogen-free timed (embryonic day 0=day of mating) pregnant Sprague-Dawley rats (200-250 g body wt) were obtained from Charles River (Hollister, Calif.) at embryonic day 3 and allowed to acclimatize until embryonic day 6. […] The fetuses were extracted by cesarean section, and the lungs were snap frozen for later analysis or processed for ATII cell or fibroblast culture. […] Louis, Mo.; 0.25 mg/kg). All studies were approved by the Los Angeles Biomedical Research Institute Institutional Review Board and were conducted in accordance with the National Institutes of Health Guide for the Care and Use of Laboratory Animals. Protein extraction and Western blot analysis for SP-B and choline phosphate cytidylyltransferase-α (CCT-α) were performed using standard methods. […] Chemicon) overnight at 4° C. The antibody for CCT-α (1:2,000 dilution) was a kind gift from Dr. […] (University of Iowa, Iowa City, Iowa). […] The density of the SP-B and CCT-α bands was quantified using a scanning densitometer (Eagle Eye, Stratagene).

Experiment [6] has as its system ATII cells. Nature of the experiment: Western analysis of CCT-α and SP-B in ATII cells treated in vitro. It is filed as cell-based, rat. The protocol: Protein extraction and Western blot analysis for SP-B and choline phosphate cytidylyltransferase-α (CCT-α) were performed using standard methods. […] Equal amounts of the protein from the supernatant were dissolved in electrophoresis sample buffer and subjected to SDS-polyacrylamide (4-12% gradient) gel electrophoresis followed by electrophoretic transfer to a nitrocellulose membrane. The membrane was blocked with 5% milk in 1× Tris-buffered saline containing 0.1% Tween 20 for 1 h and then incubated with rabbit anti-human SP-B polyclonal antibody (1:1,000 dilution; Chemicon) overnight at 4° C. The antibody for CCT-α (1:2,000 dilution) was a kind gift from Dr. Mallampalli (University of Iowa, Iowa City, Iowa). Subsequently, the membrane was washed with 1× Tris-buffered saline+0.1% Tween 20 and incubated with a 1:3,000 dilution of anti-rabbit horseradish peroxidase-linked whole antibody immunoglobulin G (Amersham, Arlington Heights, Ill.) for 1 h at room temperature, washed again, and developed with a chemiluminescent substrate (ECL, Amersham) following the manufacturer's protocol. The density of the SP-B and CCT-α bands was quantified using a scanning densitometer (Eagle Eye, Stratagene).

For experiment [7], the system named is ATII cells. To be noted: rat, in vivo.
In experiment [8] the test system is WI38 cells. Briefly: Reversal of nicotine-induced LIF-to-MYF transdifferentiation in WI38 cells, Western analysis. To be noted: GW9662 1×10^−5 M pretreatment; nicotine 1×10^−9 M 7 days.
Description: The human embryonic cell line WI38 was obtained from the American Type Culture Collection (Rockville, Md.). Cells were grown in minimum essential medium (MEM) +10% fetal bovine serum at 37° C. in six-well plates, two well slides, and 60-mm and 100-mm culture dishes, as needed. […] Subsequently, the cells were treated with rosiglitazone (RGZ) (1×10^−5 M) (a PPARγ agonist), PTHrP (5×10^−7 M), or DBcAMP (1×10^−5 M) for 7 days, and the expression of PTHrP receptor, PPARγ, ADRP, calponin, and cSMA was determined by Western analysis and immunohistochemistry. Simultaneously, fibroblast function was characterized by measuring their capacity to take up triglycerides. Some experiments were performed in the presence of a specific PPARγ antagonist, GW9662. Medium containing fresh chemicals was added daily, and at the end of the experimental period the cells were processed as needed.
For Western blotting, cells were lysed using an extraction buffer [10 mM tris (hydroxymethyl) aminomethane (Tris, pH 7.5), 0.25 M sucrose, 1 mM EDTA, 5 mM benzamidine, 2 mM phenylmethylsulfonyl fluoride, and 10 (j.tg/ml each of pepstatin A, aprotinin, and leupeptin], and centrifuged at 140 g for 10 min (4° C.). Equal amounts of the protein (25 μg) from the supernatant were dissolved in electrophoresis sample buffer and were subjected to sodium dodecyl sulfate-polyacrylamide (4%-12% gradient) gel electrophoresis (SDS-PAGE) followed by electrophoretic transfer to a nitrocellulose memane. The nonspecific binding of antibody was blocked by washing with Tris-buffered saline (TBS) containing 0.1% Tween 20 (TBST) and 5% milk for 1 h. The blot was then subjected to two brief washes with TBST plus 0.5% Tween 20, incubated in TBST plus 0.1% Tween 20 and the specific primary antibodies (PPARγ 1:2000, Alexis Biochemicals, San Diego, Calif.; cSMA 1:50,000, Sigma, St. Louis, Mo.: ADRP 1:3000) overnight at 4° C. Blots were then washed in TBST plus 0.1% Tween 20 and then incubated for 1 h in secondary antibody, washed, and developed with a chemiluminescent substrate [enhanced chemiluminescence (ECL); Amersham, Arlington Heights, Ill.] following the manufacturer's protocol. The densities of the specific protein bands were quantified using a scanning densitometer (Eagle Eye II still video system, Stratagene, La Jolla, Calif.).

Description for fetal rat lung explants: Explants derived from three to five litters of rats were used for each experiment during the course of the studies. Lungs were harvested from fetal rats under sterile conditions. The lung tissue was chopped into −1-mm cubes and incubated in 0.5 ml of Waymouth's MB-252/1 medium containing penicillin (100 U/ml)-streptomycin (100 U/ml) and Fungizone (2.5 μg/ml) in six-well plates while rocking on an oscillating platform (3 cycles/min) in 5% CO2-95% air at 37° C. The explants were allowed to attach for 1-2 h.
Cultured ATII cells or explants were treated with nicotine under various experimental conditions (see below), and cell proliferation was determined by Cell Proliferation Assay (Promega) or dual PCNA and SP-C labeling, respectively (see above).

Regarding α-bungarotoxin, the “prevention of nicotine-induced decrease in triolein uptake” value in the experiment on WI38 cells [1] is reported as “completely prevented”. At PTHrP receptor, the “prevention of nicotine-induced decrease in PTHrP binding to its receptor” value is on record as “prevented”.

`CNC1(C)C2CCC(C2)C1(C)C` (centres unmarked) [mecamylamine]: the “prevention of nicotine-induced decrease in triolein uptake” value in the experiment with WI38 cells [1] (nACh receptor antagonist 1×10^−9 or 1×10^−6 M) is given as “not”. The “prevention of nicotine-induced decrease in PTHrP binding to its receptor” value at PTHrP receptor (pretreatment with nACh receptor antagonist, nicotine 1×10^−6 M) is recorded as “not”.

Turning to PTHrP-(7-34) amide, the “binding of radioactive ligand [125I]-Tyr34-PTHrP-(1-34)” value in the experiment with PTHrP receptor (1 μM) is reported as “inhibited”.

`CCCCC[C@H](O)/C=C/[C@H]1C(=O)C=C[C@@H]1C/C=C\CCCC(=O)O` [PGJ2, prostaglandin J2]: the “block of nicotine-induced increase in ATII cell proliferation” value in experiment [2] (rat, in vivo) is given as “completely blocked”. Also, the “block of nicotine-induced increase in ATII proliferation” value in the experiment with fetal ATII cells (rat, in vivo) is listed as “almost completely blocked”. Moreover, in the experiment with fetal rat lung explants, the “block of nicotine-induced increase in ATII cell proliferation in lung explants” value is listed as “blocked”. The “effect on nicotine-induced increase in phospholipid synthesis” value in the experiment on ATII cells [3] (rat, in vivo) was “no effect”. Besides, in the experiment with ATII cells [4], the “effect on nicotine-induced increase in phospholipid synthesis” value is recorded as “no effect”. Moreover, in the experiment on ATII cells [5] (rat, in vivo), the “effect on nicotine-induced increase (CCT-α experiment)” value is given as “no effect” and the “effect on nicotine-induced increase in SP-B protein expression” value is on record as “no effect”. Moreover, in the experiment with ATII cells [6], the “effect on nicotine-induced increase (CCT-α experiment)” value was “no effect” and the “effect on nicotine-induced increase in SP-B expression” value is “unaffected”. In the experiment on ATII cells [7], the “block of nicotine-induced alterations in ribose synthesis” value is listed as “completely blocked”; the “prevention of nicotine-induced changes in de novo palmitate synthesis and acetyl-CoA labeling” value is listed as “completely prevented”.

As to `O=C(Nc1ccccc1)c1cc([N+](=O)[O-])ccc1Cl` [GW9662], the “block of the PGJ2 effect on nicotine-induced increase in ATII cell proliferation” value is recorded as “almost completely blocked” in experiment [2] (GW-9662 0.25 mg/kg pretreatment, nicotine + PGJ2) and 70% in experiment [2] (in utero nicotine + PGJ2). Also, the “block of the PGJ2 effect” value with fetal ATII cells (nicotine + PGJ2) is “blocked”. In addition, in the experiment with fetal rat lung explants (nicotine 24 h + PGJ2), the “block of the PGJ2 effect in lung explants” value was “blocked”. In addition, the “effect on nicotine-induced increase in phospholipid synthesis” value in the experiment on ATII cells [3] (concomitant PGJ2 alone or in combination with GW-9662, in utero) was “no effect”; with ATII cells [4] (concomitant PGJ2 alone or in combination with GW-9662, in vitro) it was “no effect”. Moreover, the “effect on nicotine-induced increase (CCT-α experiment)” value with ATII cells [5] (PGJ2 alone or in combination with GW-9662, in vivo) was “no effect”; in the experiment on ATII cells [6] (PGJ2 alone or in combination with GW-9662, in vitro) it was “no effect”. The “effect on nicotine-induced increase in SP-B protein expression” value with ATII cells [5] (concomitant treatment, in utero) is “no effect”. Besides, in the experiment with ATII cells [6] (in vitro), the “effect on nicotine-induced increase in SP-B expression” value is listed as “unaffected”. Further, in the experiment on WI38 cells [8], the “block of molecular protection by PTHrP, DBcAMP and RGZ against nicotine-induced LIF-to-MYF transdifferentiation (PPARγ, calponin)” value was “completely blocked”.

Turning to `COc1cc2c3cc1Oc1cc(ccc1O)C[C@@H]1c4c(cc(OC)c(O)c4Oc4ccc(cc4)C[C@@H]3N(C)CC2)CC[N+]1(C)C` [D-tubocurarine], the “prevention of nicotine-induced decrease in triolein uptake” value in the experiment on WI38 cells [1] is listed as “completely prevented”. Moreover, the “prevention of nicotine-induced decrease in PTHrP binding to its receptor” value on PTHrP receptor is “prevented”.
